Earlier results on 2 compounds are cited in patent publication US20110302824A1, “PROCESS FOR LIQUEFYING A CELLULOSIC MATERIAL” (SHELL OIL COMPANY, priority 2010, published 2011).

The conditions of this series: polarity of the (co-)solvent of the liquefaction medium; octanol-water.

In the case of `CCCCCCCCCCCC` [w/C12, dodecane], the “Solvent Log P” value is listed as 6.1.
On to `CC1CCC(=O)O1` (centres unmarked) [w/gVL, gamma-valerolactone], for which the “Solvent Log P” value was −0.6.
